This note sets out measurements from US12612410B2 (CHILDREN'S HOSPITAL MEDICAL CENTER, priority 2020, dated 2026).

Where only a bound is given, the exact number is not on record here.

In the experiment the target is T1, FLT3 (Homo sapiens, UniProt P36888).
T1 sequence (P36888 27-993): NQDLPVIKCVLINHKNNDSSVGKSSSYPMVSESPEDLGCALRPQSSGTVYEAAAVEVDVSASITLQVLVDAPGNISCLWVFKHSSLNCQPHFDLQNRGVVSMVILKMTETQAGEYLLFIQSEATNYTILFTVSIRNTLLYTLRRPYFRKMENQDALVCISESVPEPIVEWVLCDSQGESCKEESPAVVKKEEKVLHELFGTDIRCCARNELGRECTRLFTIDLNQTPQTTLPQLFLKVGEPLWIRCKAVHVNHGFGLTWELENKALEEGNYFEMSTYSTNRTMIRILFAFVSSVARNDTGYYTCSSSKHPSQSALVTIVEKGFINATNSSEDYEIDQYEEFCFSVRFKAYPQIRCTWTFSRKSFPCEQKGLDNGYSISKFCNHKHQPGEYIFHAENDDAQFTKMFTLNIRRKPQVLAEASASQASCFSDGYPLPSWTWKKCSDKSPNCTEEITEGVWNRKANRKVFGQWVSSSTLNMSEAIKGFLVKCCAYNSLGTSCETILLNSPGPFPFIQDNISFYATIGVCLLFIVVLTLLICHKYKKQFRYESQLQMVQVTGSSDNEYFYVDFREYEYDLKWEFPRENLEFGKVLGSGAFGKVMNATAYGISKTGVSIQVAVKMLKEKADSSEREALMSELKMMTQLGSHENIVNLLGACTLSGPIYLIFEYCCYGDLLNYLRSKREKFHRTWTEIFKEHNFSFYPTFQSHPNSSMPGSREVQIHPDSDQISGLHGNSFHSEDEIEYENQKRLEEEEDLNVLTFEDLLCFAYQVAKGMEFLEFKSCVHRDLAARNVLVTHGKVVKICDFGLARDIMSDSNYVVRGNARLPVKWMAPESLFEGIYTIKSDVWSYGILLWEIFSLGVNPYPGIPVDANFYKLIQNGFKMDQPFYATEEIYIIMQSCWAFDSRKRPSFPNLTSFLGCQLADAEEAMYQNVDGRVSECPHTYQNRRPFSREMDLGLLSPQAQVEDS
As to the kind of experiment: Reaction Biology NanoBRET target engagement assay, FLT3. It is filed as cell-based. As to conditions: transfected HEK-293 cells. From the text: The NanoBRET assay measures kinase engagement in real time in the context of the intact cell. Unlike the previously described biochemical kinase assay methodologies in Examples 26-27, the NanoBRET assay measures the binding and activity characteristics under equilibrium conditions using full-length kinases in the presence of cellular concentrations of ATP in live, uncompromised cells. As such, the assay provides a more relevant assessment of kinase potency and selectivity that would be expected to be observed in the native cellular environment, where potency is often considerably lower than that observed in the isolated biochemical assays (Vasta, J. D. et al., (2018) Cell Chem. Biol. 25, 206-214). The assay uses a Kinase-NanoLuc® fusion vector expressing a kinase protein to which a luciferase tag has been added, a cell-permeant fluorescent NanoBRET™ tracer, a NanoLuc® substrate, and an extracellular NanoLuc® inhibitor. Upon expression of the luciferase-tagged kinase, cells will produce a strong BRET signal only in the presence of the NanoBRET™ tracer. The extracellular NanoLuc® inhibitor ensures that the BRET signal observed emanates only from live cells. Because the BRET signal has tight distance constraints, addition of the test compound will decrease the BRET signal if the compound competes with the NanoBRET™ tracer for binding to the kinase domain. Under the appropriate tracer conditions established by the manufacturer, quantitative intracellular affinity and relative potency can then be determined using Mass Action model equations.
HEK-293 cells were purchased from ATCC. FuGENEHD Transfection Reagent, Kinase-NanoLucfusion plasmids, Transfection Carrier DNA, NanoBRETTracers and dilution buffer, NanoBRETNano-Glo Substrate, Extracellular NanoLucInhibitor were obtained from Promega.
Assays were conducted following Promega assay protocol with some modifications. HEK-293 Cells were transiently transfected with Kinase-NanoLucFusion Vector DNA by FuGENEHD Transfection Reagent. Testing compounds were delivered into 384 well assay plate by Echo 550 (Labcytelnc, Sunnyvale, CA). Transfected cells were harvested and mixed with NanoBRETTracer Reagent and dispensed into 384 well plates and incubated at 37° C. in 5% CO2 cell culture incubator for 1 hour. The NanoBRETNano-Glo Substrate plus Extracellular NanoLucInhibitor Solution were added into the wells of the assay plate and incubated for 2-3 minutes at room temperature. The donor emission wavelength (460 nm) and acceptor emission wavelength (600 nm) were measured in the EnVisionplate reader. The BRET Ratios were calculated. BRET Ratio=[(Acceptor sample÷Donor sample)−(Acceptor no-tracer control÷Donor no-tracer control)]. The IC50 values of compounds were calculated with Prism GraphPad program.
NanoBRET™ Target Engagement Assay Protocol
1. Transient Transfection of HEK-293 Cells NanoLuc® Fusion Vector DNA
• 1). Cultivate HEK-293 cells (70-80% confluence) appropriately prior to assay. Trypsinize and collect HEK-293 cells. • 2). Prepare lipid: DNA complexes as follows: • a. Prepare a […] solution of DNA in Opti-MEM without serum that consists of the following ratios of carrier DNA and DNA encoding NanoLuc® fusion. 9.0 µg/mL of Transfection Carrier DNA, […] of NanoLuc fusion vector DNA and 1 mL of Opti-MEM without phenol red. Mix thoroughly. • b. Add 30 l of FuGENE HD Transfection Reagent into each milliliter of DNA mixture to form lipid: DNA complex. • c. Mix by inversion 10 times. • d. Incubate at ambient temperature for 20 minutes to allow complexes to form. • 3). In a sterile, conical tube, mix 1 part of lipid: DNA complex with 20 parts of HEK-293 cells in suspension. Mix gently by inversion 5 times. • 4). Dispense cells+lipid: DNA complex into a sterile tissue culture dish and incubate for 22-24 hours. 2. Addition of Test Compounds (dry plate shooting)
Each test compound is delivered from the compound source plate to the wells of 384-well white NBS plate by Echo 550.
3. […]

The compound `CC(O)(c1cn2c(-c3cccc(N[C@H]4CNC[C@@H]4F)n3)cnc2cn1)C(F)(F)F` (single isomer, unassigned) [Compound 77] yielded an IC50 of 0.277 µM.

As for `CC(O)(c1cn2c(-c3cccc(N[C@H]4CNC[C@@H]4F)n3)cnc2cn1)C(F)(F)F` (single isomer, unassigned) [Compound 78], the IC50 came to 0.04 µM.

`CC(O)(c1cn2c(-c3cccc(N[C@H]4CNCC[C@@H]4F)n3)cnc2cn1)C(F)(F)F` (single isomer, unassigned) [Compound 80] showed an IC50 of 0.094 µM.

`CC(O)(c1cn2c(-c3cccc(N[C@@H]4CCCNC4)n3)cnc2cn1)C(F)(F)F` (single isomer, unassigned) [Compound 81] showed an IC50 of 0.015 µM.

`CC(O)(c1cn2c(-c3cccc(N[C@H]4CNCC[C@@H]4F)n3)cnc2cn1)C(F)(F)F` (single isomer, unassigned) [Compound 82]: the 50% inhibitory concentration (IC50) came to 0.04 µM.

With `CC1(c2cn3c(-c4cccc(N[C@H]5CNC[C@@H]5F)n4)cnc3cn2)CC1` [Compound 1, N-((3S,4S)-4-fluoropyrrolidin-3-yl)-6-(6-(1-methylcyclopropyl)imidazo[1,2-a]pyrazin-3-yl)pyridin-2-amine], the IC50 came out at 0.006 µM.

`CC1(c2cn3c(-c4cccc(N[C@@H]5CCNC5)n4)cnc3cn2)CC1` [Compound 3, (R)-6-(6-(1-methylcyclopropyl)imidazo[1,2-a]pyrazin-3-yl)-N-(pyrrolidin-3-yl)pyridin-2-amine] returned an IC50 of 0.003 µM.

`CC1(c2cn3c(-c4cccc(N[C@H]5CNCC56CC6)n4)cnc3cn2)CC1` [Compound 5, (R)-N-(6-(6-(1-methylcyclopropyl)imidazo[1,2-a]pyrazin-3-yl)pyridin-2-yl)-5-azaspiro[2.4]heptan-7-amine] registered an IC50 below 0.0005 µM.

Take `FC(F)c1cn2c(-c3cccc(N[C@H]4CNC[C@@H]4F)n3)cnc2cn1` [Compound 16, 6-(6-(difluoromethyl)imidazo[1,2-a]pyrazin-3-yl)-N-((3S,4S)-4-fluoropyrrolidin-3-yl)pyridin-2-amine]: half-maximal inhibition (IC50) was put at 0.021 µM.

`FC(F)c1cn2c(-c3cccc(N[C@H]4CNCC[C@@H]4F)n3)cnc2cn1` [Compound 25, 6-(6-(difluoromethyl)imidazo[1,2-a]pyrazin-3-yl)-N-((3S,4S)-4-fluoropiperidin-3-yl)pyridin-2-amine] yielded an IC50 of 0.006 µM.

Consider `CC(C)(O)c1cn2c(-c3cccc(N[C@H]4CNCC[C@@H]4F)n3)cnc2cn1` [Compound 31, 2-(3-(6-(((3S,4S)-4-fluoropiperidin-3-yl)amino)pyridin-2-yl)imidazo[1,2-a]pyrazin-6-yl)propan-2-ol], for which 0.136 µM corresponded to half-maximal inhibition (IC50).

For the compound `CC(C)(O)c1cn2c(-c3nc(N[C@H]4CNC[C@@H]4F)c(F)cc3F)cnc2cn1` [Compound 33, 2-(3-(3,5-difluoro-6-(((3S,4S)-4-fluoropyrrolidin-3-yl)amino)pyridin-2-yl)imidazo[1,2-a]pyrazin-6-yl)propan-2-ol], the IC50 was 1.5 µM.

As for `CC(C)(O)c1cn2c(-c3nc(N[C@@H]4CCCNC4)c(F)cc3F)cnc2cn1` [Compound 34, (R)-2-(3-(3,5-difluoro-6-(piperidin-3-ylamino)pyridin-2-yl)imidazo[1,2-a]pyrazin-6-yl)propan-2-ol], the IC50 was 0.177 µM.

Consider `CC(C)(O)c1cn2c(-c3nc(N[C@H]4CNCC[C@@H]4F)c(F)cc3F)cnc2cn1` [Compound 35, 2-(3-(3,5-difluoro-6-(((3S,4S)-4-fluoropiperidin-3-yl)amino)pyridin-2-yl)imidazo[1,2-a]pyrazin-6-yl)propan-2-ol], for which the IC50 turned out to be 0.216 µM.

Turning to `FC(F)(F)COc1cn2c(-c3cccc(N[C@@H]4CCNC4)n3)cnc2cn1` [Compound 38, (R)-N-(pyrrolidin-3-yl)-6-(6-(2,2,2-trifluoroethoxy)imidazo[1,2-a]pyrazin-3-yl)pyridin-2-amine], half-maximal inhibition (IC50) required 0.012 µM.

In turn, `Cn1cc(-c2cn3c(-c4cccc(N[C@@H]5CCCNC5)n4)cnc3cn2)cn1` [Compound 43, (R)-6-(6-(1-methyl-1H-pyrazol-4-yl)imidazo[1,2-a]pyrazin-3-yl)-N-(piperidin-3-yl)pyridin-2-amine] gave a half-inhibitory concentration (IC50) of 0.073 µM.

The compound `F[C@H]1CNC[C@@H]1Nc1cccc(-c2cnc3cnc(C4CC4)cn23)n1` [Compound 50, 6-(6-cyclopropylimidazo[1,2-a]pyrazin-3-yl)-N-((3S,4S)-4-fluoropyrrolidin-3-yl)pyridin-2-amine] yielded an IC50 of 0.01 µM.

For `F[C@H]1CCNC[C@@H]1Nc1cccc(-c2cnc3cnc(C4CC4)cn23)n1` [Compound 51, 6-(6-cyclopropylimidazo[1,2-a]pyrazin-3-yl)-N-((3S,4S)-4-fluoropiperidin-3-yl)pyridin-2-amine], half-maximal inhibition (IC50) was put at 0.004 µM.

Compound `FC(F)COc1cn2c(-c3cccc(N[C@H]4CNC[C@@H]4F)n3)cnc2cn1` [Compound 58, 6-(6-(2,2-difluoroethoxy)imidazo[1,2-a]pyrazin-3-yl)-N-((3S,4S)-4-fluoropyrrolidin-3-yl)pyridin-2-amine] had a half-inhibitory concentration (IC50) of 0.052 µM.

`O=S1(=O)CCCN1c1cn2c(-c3cccc(N[C@H]4CNCC[C@@H]4F)n3)cnc2cn1` [Compound 97, 2-(3-(6-(((3S,4S)-4-fluoropiperidin-3-yl)amino)pyridin-2-yl)imidazo[1,2-a]pyrazin-6-yl)isothiazolidine 1,1-dioxide] registered an IC50 of 0.0009 µM.

On to `O=C1CCCN1c1cn2c(-c3nc(N[C@H]4CNCC[C@@H]4F)c(F)cc3F)cnc2cn1` [Compound 107, 1-[3-[3,5-difluoro-6-[[(3S,4S)-4-fluoro-3-piperidyl]amino]-2-pyridyl]imidazo[1,2-a]pyrazin-6-yl]pyrrolidin-2-one], for which the IC50 came to 0.0009 µM.

`O=C1CCCN1c1cn2c(-c3nc(N[C@@H]4CCCNC4)c(F)cc3F)cnc2cn1` [Compound 108, (R)-1-(3-(3,5-difluoro-6-(piperidin-3-ylamino)pyridin-2-yl)imidazo[1,2-a]pyrazin-6-yl)pyrrolidin-2-one] displayed an IC50 of 0.031 µM.

In turn, `O=C1CCCN1c1cn2c(-c3cccc(N[C@H]4CNCC[C@@H]4F)n3)cnc2cn1` [Compound 119, 1-(3-(6-(((3S,4S)-4-fluoropiperidin-3-yl)amino)pyridin-2-yl)imidazo[1,2-a]pyrazin-6-yl)pyrrolidin-2-one] returned an IC50 of 0.016 µM.
